Assay results reported in ChEMBL document CHEMBL1275420, “Transfer of embB codon 306 mutations into clinical Mycobacterium tuberculosis strains alters susceptibility to ethambutol, isoniazid, and rifampin” (2008).
Values after ≈ are worked out from the molar mass of the structure shown.

The compounds below were run on Mycobacterium tuberculosis (assay: Antimycobacterial activity against Mycobacterium tuberculosis isolate 210 at 37 degC after 10 to 11 days by radiometric Bactec 460TB method).
Assay type: functional
In the case of CO[C@H]1/C=C/O[C@@]2(C)Oc3c(C)c(O)c4c(O)c(c(/C=N/N5CCN(C)CC5)c(O)c4c3C2=O)NC(=O)/C(C)=C\C=C\[C@H](C)[C@H](O)[C@@H](C)[C@@H](O)[C@@H](C)[C@H](OC(C)=O)[C@@H]1C [RIFAMPIN], the MIC is reported as 0.05 µg/mL (≈ 0.0608 µM).
CC[C@@H](CO)NCCN[C@@H](CC)CO [ETHAMBUTOL] showed an MIC of 2 µg/mL (≈ 9.79 µM).
Compound NNC(=O)c1ccncc1 [ISONIAZID] has an MIC of 0.05 µg/mL (≈ 0.365 µM).
